Test results taken from US20120015998A1 (priority 2010, published 2012).

How the values were obtained:
[1] = tested on: actinic keratoses lesions; assay: Phototherapy of actinic keratoses lesions with topical photosensitizer prodrug and red light emitting OLED (Device A); format: in vivo, person; settings: 20% topical solution on individual lesions; illuminated about 14-18 hours after application with red OLED Device A
Text: 5-Aminolevulinic acid HCl (20% topical solution, available as LEVULAN® KERASTICK® from DUSA® Pharmaceuticals) is topically applied to individual lesions on a person suffering from actinic keratoses.
Methyl aminolevulinate (16.8% topical cream, available as METVIXIA® Cream from GALERMA LABORATORIES, Fort Worth, Tex., USA) is topically applied to individual lesions on a person suffering from actinic keratoses.

[2] = tested on: presumed ocular histoplasmosis; parameters: species or system person; settings: in vivo, iv
[3] = tested on: age-related macular degeneration; assay: Verteporphin phototherapy of age-related macular degeneration, retina illuminated with red OLED (Device A); settings: about 6 mg/m^2 i.v. over about 10 minutes; retina illuminated about 15 minutes after start of infusion with red OLED Device A
[4] = tested on: pathological myopia; assay: Verteporphin phototherapy of pathological myopia, retina illuminated with red OLED (Device A); settings: about 6 mg/m^2 i.v. over about 10 minutes; retina illuminated about 15 minutes after start of infusion with red OLED Device A

SMILES | number or severity of the lesions after the treatment [1] | patient's vision after treatment [2] | patient's vision after treatment [3] | patient's vision after treatment [4]
Cl.NCC(=O)CCC(=O)O [5-Aminolevulinic acid HCl] | anticipated to be reduced | – | – | –
C=Cc1c(C)c2cc3nc(cc4[nH]c(cc5nc(cc1[nH]2)C(C)=C5CCC(=O)O)c(CCC(=O)OC)c4C)[C@@]1(C)C3=CC=C(C(=O)OC)[C@H]1C(=O)OC [Verteporphin] | – | anticipated to be stabilized | anticipated to be stabilized | anticipated to be stabilized
